From ChEMBL document CHEMBL1759834, “Synthesis, stereochemistry, antimicrobial evaluation and QSAR studies of 2,6-diaryltetrahydropyran-4-one thiosemicarbazones” (2011)
Converted amounts (≈) assume the structure as drawn.

Tests used:
Escherichia coli = test: Antibacterial activity against Escherichia coli ATCC 25835 after 24 hrs by twofold serial dilution method; assay type: functional
Aspergillus niger = test: Antifungal activity against Aspergillus niger after 72 to 96 hrs by twofold serial dilution method; assay type: functional
Pseudomonas aeruginosa = test: Antibacterial activity against Pseudomonas aeruginosa ATCC 10145 after 24 hrs by twofold serial dilution method; assay type: functional
Bacillus subtilis = test: Antibacterial activity against Bacillus subtilis ATCC 451 after 24 hrs by twofold serial dilution method; assay type: functional
Salmonella typhi = test: Antibacterial activity against Salmonella typhi ATCC 24915 after 24 hrs by twofold serial dilution method; assay type: functional, Salmonella enterica subsp. enterica serovar Typhi; conditions: Salmonella enterica, ATCC 24915, 24 h
Klebsiella pneumoniae = test: Antibacterial activity against Klebsiella pneumoniae ATCC 15490 after 24 hrs by twofold serial dilution method; assay type: functional
Cryptococcus neoformans = test: Antifungal activity against Cryptococcus neoformans after 72 to 96 hrs by twofold serial dilution method; assay type: functional
Staphylococcus aureus = test: Antibacterial activity against Staphylococcus aureus ATCC 25825 after 24 hrs by twofold serial dilution method; assay type: functional
Candida albicans = test: Antifungal activity against Candida albicans after 24 hrs by twofold serial dilution method; assay type: functional

## COc1cccc([C@H]2O[C@@H](c3cccc(OC)c3)[C@H](C)/C(=N/NC(=S)Nc3ccccc3)[C@H]2C)c1
Escherichia coli
  -logMIC: 4.301
Escherichia coli; Escherichia coli, ATCC 25835, 24 h
  MIC: 50 µg/mL (≈ 102 µM)
Aspergillus niger
  -logMIC: 4
Aspergillus niger; Aspergillus niger
  MIC: 100 µg/mL (≈ 204 µM)
Pseudomonas aeruginosa
  -logMIC: 3.698
Pseudomonas aeruginosa; Pseudomonas aeruginosa, ATCC 10145, 24 h
  MIC: 200 µg/mL (≈ 408 µM)
Bacillus subtilis
  -logMIC: 4.903
Bacillus subtilis; Bacillus subtilis, ATCC 451, 24 h
  MIC: 12.5 µg/mL (≈ 25.5 µM)
Salmonella typhi
  MIC: 50 µg/mL (≈ 102 µM)
Klebsiella pneumoniae
  -logMIC: 4
Klebsiella pneumoniae; Klebsiella pneumoniae, ATCC 15490, 24 h
  MIC: 100 µg/mL (≈ 204 µM)
Cryptococcus neoformans
  -logMIC: 4
Cryptococcus neoformans; Cryptococcus neoformans
  MIC: 100 µg/mL (≈ 204 µM)
Staphylococcus aureus
  -logMIC: 4.903
Staphylococcus aureus; Staphylococcus aureus, ATCC 25825, 24 h
  MIC: 12.5 µg/mL (≈ 25.5 µM)
Candida albicans
  -logMIC: 4.602
Candida albicans; Candida albicans, 24 h
  MIC: 25 µg/mL (≈ 51.1 µM)
